This is an account of results in PubChem BioAssay (NCI).

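Tested at 5 concentrations; 48 h exposure; 96-well plates; endpoints linearly interpolated, else capped at highest concentration. TGI: concentration producing complete growth inhibition.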 A value given as a limit tells only on which side of the number the result lay.

Among the test systems are XF 498 CNS; P388 leukemia; LXFL 529 NSCLC; SNB-78 CNS; RXF-631 renal; DLD-1 colon; KM20L2 colon; DMS 273 small cell lung; SN12K1 renal; M19-MEL melanoma; MDA-N.
Common to all, as to assay: NCI tumour cell line growth inhibition, 48 h

`O=c1cnn(C2OC(CO)C(O)C2O)c(=S)[nH]1` (configuration not stated): the TGI was over 100 µM in the assay on XF 498 CNS; 11.2 µM in the assay with P388 leukemia; over 100 µM in the assay on LXFL 529 NSCLC; over 100 µM in the assay with SNB-78 CNS; over 100 µM with RXF-631 renal; over 100 µM with DLD-1 colon. The TGI in the assay on KM20L2 colon, with DMS 273 small cell lung, with SN12K1 renal, with M19-MEL melanoma and in the assay on MDA-N was over 100 µM each time.
As for `O=S(=O)(/C=C/c1ccc(F)cc1)Cc1ccc(CS(=O)(=O)/C=C/c2ccc(F)cc2)cc1`, the TGI in the assay on XF 498 CNS, with LXFL 529 NSCLC, with SNB-78 CNS, with RXF-631 renal, in the assay with DLD-1 colon and with KM20L2 colon was over 100 µM in each case. Also, the TGI in the assay on DMS 273 small cell lung and with M19-MEL melanoma was over 100 µM each time.
As for `COc1ccc(/C=C/c2cc(OC)c(OC)c(OC)c2)cc1`, the TGI is 8.6 µM with XF 498 CNS; over 100 µM with LXFL 529 NSCLC; 52.9 µM in the assay on SNB-78 CNS; over 89.9 µM in the assay on RXF-631 renal; over 100 µM with DLD-1 colon; 7.84 µM in the assay on KM20L2 colon. Besides, the TGI with DMS 273 small cell lung and in the assay on M19-MEL melanoma was over 100 µM in each case.
